The experiment has as its target T1, Histone-lysine N-methyltransferase EHMT2 (Homo sapiens, UniProt Q96KQ7).
T1 sequence (Q96KQ7 whole entry): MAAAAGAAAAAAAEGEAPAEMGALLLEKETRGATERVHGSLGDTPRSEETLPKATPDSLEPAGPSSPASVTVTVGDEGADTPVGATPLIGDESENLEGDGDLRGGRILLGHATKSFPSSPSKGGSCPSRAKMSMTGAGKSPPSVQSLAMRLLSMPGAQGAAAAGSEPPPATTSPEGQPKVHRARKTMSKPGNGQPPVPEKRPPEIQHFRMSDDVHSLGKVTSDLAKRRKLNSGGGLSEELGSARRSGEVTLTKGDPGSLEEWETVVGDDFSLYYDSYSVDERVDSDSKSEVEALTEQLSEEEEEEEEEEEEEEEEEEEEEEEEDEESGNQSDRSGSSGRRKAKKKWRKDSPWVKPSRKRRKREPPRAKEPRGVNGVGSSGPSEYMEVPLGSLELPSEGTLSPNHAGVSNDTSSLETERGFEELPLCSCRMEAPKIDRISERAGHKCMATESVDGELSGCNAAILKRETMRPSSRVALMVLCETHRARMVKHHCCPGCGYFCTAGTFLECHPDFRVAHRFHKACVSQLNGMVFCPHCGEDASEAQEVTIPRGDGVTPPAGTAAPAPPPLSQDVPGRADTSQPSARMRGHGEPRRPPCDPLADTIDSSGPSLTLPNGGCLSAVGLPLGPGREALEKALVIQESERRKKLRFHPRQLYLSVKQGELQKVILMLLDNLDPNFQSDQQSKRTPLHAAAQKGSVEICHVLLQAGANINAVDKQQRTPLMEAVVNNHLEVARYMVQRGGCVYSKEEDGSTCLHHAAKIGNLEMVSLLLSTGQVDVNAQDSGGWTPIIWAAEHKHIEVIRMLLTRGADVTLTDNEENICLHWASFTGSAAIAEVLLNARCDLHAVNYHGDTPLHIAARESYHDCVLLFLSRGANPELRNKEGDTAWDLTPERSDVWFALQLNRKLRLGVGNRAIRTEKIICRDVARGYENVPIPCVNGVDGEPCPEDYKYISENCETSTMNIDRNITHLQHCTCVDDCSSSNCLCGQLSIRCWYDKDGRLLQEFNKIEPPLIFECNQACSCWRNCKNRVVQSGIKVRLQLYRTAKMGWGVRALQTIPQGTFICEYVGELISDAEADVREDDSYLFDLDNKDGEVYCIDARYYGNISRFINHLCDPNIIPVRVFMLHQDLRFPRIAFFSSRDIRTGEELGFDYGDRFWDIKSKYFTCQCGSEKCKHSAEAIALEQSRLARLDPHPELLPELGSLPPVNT
Kind of experiment: Enzymatic Activity Assay: For the assay, the following buffer was used to set up reactions: 50 mM Tris-HCl pH9, 50 mM NaCl, 0.01% Tween-20 and 1 mM DTT (added fresh prior to starting the reactions). The assay is set up by adding a final concentration of 0.15 nM G9a, 15 uM S-adenosyl-methionine and 100 nM biotinylated histone 3 peptide (1-21). The reaction is incubated at rt for 1 hour and subsequently quenched with the acceptor beads (anti-H3k9me2 AlphaLISA acceptor beads, Perkin Elmer #AL117) at a final concentration of 20 ug/mL. The acceptor beads are incubated for 1 hour. After 1 hour, the donor beads are added at a final concentration of 20 ug/mL (Alpha Streptavidin donor beads, PerkinElmer #6760002). Donor beads are incubated for 0.5 hours. Both donor and acceptor beads are resuspended in AlphaLISA 5X Epigenetics Buffer 1 Kit (PerkinElmer #AL008) prior to addition to the reaction. All manipulations and incubations with the donor and acceptor beads are done in subdued light. Signal is detected in an EnVision plate reader in Alpha mode. A general note: Bead proximity is the source of the signal in Alpha formats.

The term IC50 denotes the concentration that gives 50% inhibition. Compound `COc1cc2nc3c(c(NC4CC(C)(C)NC(C)(C)C4)c2cc1OC)CCC3` yielded an IC50 of 53.7 nM.
`COc1cc2nc3c(c(NC4CCN(C5CCOC5)CC4)c2cc1OC)CCC3` (centres undefined) displayed an IC50 of 617 nM.
As for `COc1cc2nc3c(c(NCC4CN(c5ccccc5F)C4)c2cc1OC)CCC3`, the figure is 1740 nM; as for `COc1cc2nc3c(c(NC4CCN(C(C)C)CC4)c2cc1OC)CCCC3`, at least 10000 nM.

For the origin of these results see ChEMBL document CHEMBL5729726, “Tricyclic compounds as histone methyltransferase inhibitors” (2023).
